# Data published in US6436956B1, “Useful form of anhydrous paroxetine hydrochloride” (Brantford Chemicals Inc., priority 1996, dated 2002).
# Structures can show the parent of a compound that is named as a salt. Where two headings read alike, the source gives them in different places.
# Columns and labels:
# [1] = bulk density and tapped density of the solid; type: physicochemical
# [2] = hygroscopicity / moisture uptake on exposure to open air; type: physicochemical
# [3] = solid-form stability, conversion to the hemihydrate polymorph (DSC maximum of 143° C.); type: physicochemical
# [4] = prior-art form, from literature; cited from earlier work
# [5] = prior-art form, purported; cited from earlier work
# [6] = Form IV as described in summary (material of Example 2)
# [7] = material of Example 5 (methanol solution evaporated to foam, dried, pulverized)
smiles,measurement,setting,value
"Cl.Fc1ccc([C@@H]2CCNC[C@H]2COc2ccc3c(c2)OCO3)cc1 [Form IV, paroxetine hydrochloride (anhydrous)]",bulk density,[1]; [6],exceeding 0.6 g/mL
same,tapped density,[1]; [6],exceeding 0.9 g/mL
same,bulk density,[1]; [7],exceeding 0.43 g/mL
same,tapped density,[1]; [7],> 0.58 g/mL
same,hygroscopic nature,[2],substantially non-hygroscopic
same,moisture taken on,"[2]; exposed to open air for three days, ca. 50% relative humidity",≤ 1.5 % by weight
same,stability,[3],very stable
same,rate of conversion to the hemihydrate polymorph,"[3]; even in humid environments, DSC maximum of 143° C. as indicator",negligible rate
"Fc1ccc([C@@H]2CCNC[C@H]2COc2ccc3c(c2)OCO3)cc1 [anhydrous form, paroxetine hydrochloride]",hygroscopic nature,[4],hygroscopic
"Fc1ccc([C@@H]2CCNC[C@H]2COc2ccc3c(c2)OCO3)cc1 [hemihydrate form, paroxetine hydrochloride hemihydrate]",stability,[5],purportedly stable
